Source: PMC12281475, “Mediator Kinase Inhibitor Selectivity and Activity in Colorectal Cancer” (ACS Chemical Biology, 2025)

Legend:
Type in all cases: biochemical
CDK9_CycK = target: T1, CDK9_CycK (Homo sapiens, UniProt P50750); test: Radiometric protein kinase assay (33PanQinase), CDK9_CycK
T1 construct: purchased Reaction Biology

CDK19_CycC = target: T2, CDK19_CycC (Homo sapiens, UniProt Q9BWU1); test: Radiometric protein kinase assay (33PanQinase), CDK19_CycC
T2 construct: purchased Reaction Biology

CDK4_CycD3 = target: T3, CDK4_CycD3 (Homo sapiens, UniProt P11802); test: Radiometric protein kinase assay (33PanQinase), CDK4_CycD3; conditions: slope of the IC50 fit
T3 construct: purchased Reaction Biology

CDK5_p35NCK = target: T4, CDK5_p35NCK (Homo sapiens, UniProt Q00535); test: Radiometric protein kinase assay (33PanQinase), CDK5_p35NCK
T4 construct: purchased Reaction Biology

CDK8_CycC = target: T5, CDK8_CycC (Homo sapiens, UniProt P49336); test: Radiometric protein kinase assay (33PanQinase), CDK8_CycC
T5 construct: purchased Reaction Biology

CDK4_CycD1 = target: T6, CDK4_CycD1 (Homo sapiens, UniProt P11802); test: Radiometric protein kinase assay (33PanQinase), CDK4_CycD1; conditions: slope of the IC50 fit
T6 construct: purchased Reaction Biology

CDK15_CycA2 = target: T7, CDK15_CycA2 (Homo sapiens, UniProt Q96Q40); test: Radiometric protein kinase assay (33PanQinase), CDK15_CycA2
T7 construct: purchased Reaction Biology

CDK18_CycY = CDK18_CycY (Homo sapiens, UniProt Q07002); test: Radiometric protein kinase assay (33PanQinase), CDK18_CycY
CDK3_CycC = target: T8, CDK3_CycC (Homo sapiens, UniProt Q00526); test: Radiometric protein kinase assay (33PanQinase), CDK3_CycC
T8 construct: purchased Reaction Biology

CDK12_CycK = target: T9, CDK12_CycK (Homo sapiens, UniProt Q9NYV4); test: Radiometric protein kinase assay (33PanQinase), CDK12_CycK
T9 construct: purchased Reaction Biology

CDK10_CycQ = CDK10_CycQ (Homo sapiens, UniProt Q15131); test: Radiometric protein kinase assay (33PanQinase), CDK10_CycQ; conditions: slope of the IC50 fit
CDK17_p35NCK = CDK17_p35NCK (Homo sapiens, UniProt Q00537); test: Radiometric protein kinase assay (33PanQinase), CDK17_p35NCK; conditions: slope of the IC50 fit
CDK3_CycE1 = target: T10, CDK3_CycE1 (Homo sapiens, UniProt Q00526); test: Radiometric protein kinase assay (33PanQinase), CDK3_CycE1; conditions: slope of the IC50 fit
T10 construct: purchased Reaction Biology

CDK13_CycK = target: T11, CDK13_CycK (Homo sapiens, UniProt Q14004); test: Radiometric protein kinase assay (33PanQinase), CDK13_CycK
T11 construct: purchased Reaction Biology

CDK9_CycT1 = target: T12, CDK9_CycT1 (Homo sapiens, UniProt P50750); test: Radiometric protein kinase assay (33PanQinase), CDK9_CycT1
T12 construct: purchased Reaction Biology

CDK20_CycH = CDK20_CycH (Homo sapiens, UniProt Q8IZL9); test: Radiometric protein kinase assay (33PanQinase), CDK20_CycH
CDK14_CycY = CDK14_CycY (Homo sapiens, UniProt O94921); test: Radiometric protein kinase assay (33PanQinase), CDK14_CycY; conditions: slope of the IC50 fit
CDK2_CycA2 = target: T13, CDK2_CycA2 (Homo sapiens, UniProt P24941); test: Radiometric protein kinase assay (33PanQinase), CDK2_CycA2
T13 construct: purchased Reaction Biology

CDK16_CycY = target: T14, CDK16_CycY (Homo sapiens, UniProt Q00536); test: Radiometric protein kinase assay (33PanQinase), CDK16_CycY; conditions: slope of the IC50 fit
T14 construct: purchased Reaction Biology

CDK7_CycH_MAT1 = target: T15, CDK7_CycH_MAT1 (Homo sapiens, UniProt P50613); test: Radiometric protein kinase assay (33PanQinase), CDK7_CycH_MAT1; conditions: slope of the IC50 fit
T15 construct: purchased Reaction Biology

CDK1_CycA2 = target: T16, CDK1_CycA2 (Homo sapiens, UniProt P06493); test: Radiometric protein kinase assay (33PanQinase), CDK1_CycA2
T16 construct: purchased Reaction Biology

CDK1_CycB1 = target: T17, CDK1_CycB1 (Homo sapiens, UniProt P06493); test: Radiometric protein kinase assay (33PanQinase), CDK1_CycB1
T17 construct: purchased Reaction Biology

CDK6_CycD2 = target: T18, CDK6_CycD2 (Homo sapiens, UniProt Q00534); test: Radiometric protein kinase assay (33PanQinase), CDK6_CycD2; conditions: slope of the IC50 fit
T18 construct: purchased Reaction Biology

CDK20_CycT1 = CDK20_CycT1 (Homo sapiens, UniProt Q8IZL9); test: Radiometric protein kinase assay (33PanQinase), CDK20_CycT1
CDK6_CycD3 = target: T19, CDK6_CycD3 (Homo sapiens, UniProt Q00534); test: Radiometric protein kinase assay (33PanQinase), CDK6_CycD3; conditions: slope of the IC50 fit
T19 construct: purchased Reaction Biology

CDK5_p25NCK = target: T20, CDK5_p25NCK (Homo sapiens, UniProt Q00535); test: Radiometric protein kinase assay (33PanQinase), CDK5_p25NCK
T20 construct: purchased Reaction Biology

CDK11B 357-795_CycK = CDK11B 357-795_CycK (Homo sapiens, UniProt P21127); test: Radiometric protein kinase assay (33PanQinase), CDK11B 357-795_CycK; conditions: slope of the IC50 fit
CDK2_CycD1 = target: T21, CDK2_CycD1 (Homo sapiens, UniProt P24941); test: Radiometric protein kinase assay (33PanQinase), CDK2_CycD1; conditions: slope of the IC50 fit
T21 construct: purchased Reaction Biology

CDK1_CycE1 = target: T22, CDK1_CycE1 (Homo sapiens, UniProt P06493); test: Radiometric protein kinase assay (33PanQinase), CDK1_CycE1
T22 construct: purchased Reaction Biology

CDK2_CycE1 = target: T23, CDK2_CycE1 (Homo sapiens, UniProt P24941); test: Radiometric protein kinase assay (33PanQinase), CDK2_CycE1
T23 construct: purchased Reaction Biology

CDK4_CycD2 = target: T24, CDK4_CycD2 (Homo sapiens, UniProt P11802); test: Radiometric protein kinase assay (33PanQinase), CDK4_CycD2; conditions: slope of the IC50 fit
T24 construct: purchased Reaction Biology

CDK6_CycD1 = target: T25, CDK6_CycD1 (Homo sapiens, UniProt Q00534); test: Radiometric protein kinase assay (33PanQinase), CDK6_CycD1; conditions: slope of the IC50 fit
T25 construct: purchased Reaction Biology

[1] = highest assay concentration 1.00E-05 M
[2] = highest assay concentration 1.00E-05 M, read-out: IC50

CDK18_CycY, sequence (Q07002 whole entry): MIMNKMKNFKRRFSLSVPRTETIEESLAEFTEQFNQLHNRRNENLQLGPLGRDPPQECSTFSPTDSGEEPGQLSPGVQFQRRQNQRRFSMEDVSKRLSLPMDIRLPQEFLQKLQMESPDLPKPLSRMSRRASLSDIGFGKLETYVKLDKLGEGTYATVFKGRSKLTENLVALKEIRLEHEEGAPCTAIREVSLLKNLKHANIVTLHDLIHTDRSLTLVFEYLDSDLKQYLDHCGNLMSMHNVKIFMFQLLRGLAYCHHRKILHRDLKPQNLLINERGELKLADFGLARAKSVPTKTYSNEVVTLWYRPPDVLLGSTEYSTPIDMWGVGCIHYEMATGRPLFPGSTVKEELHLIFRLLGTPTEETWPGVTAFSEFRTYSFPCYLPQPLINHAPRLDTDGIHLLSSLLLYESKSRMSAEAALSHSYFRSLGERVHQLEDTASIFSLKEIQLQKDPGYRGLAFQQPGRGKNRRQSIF
CDK18_CycY, sequence (Q8ND76 whole entry partner): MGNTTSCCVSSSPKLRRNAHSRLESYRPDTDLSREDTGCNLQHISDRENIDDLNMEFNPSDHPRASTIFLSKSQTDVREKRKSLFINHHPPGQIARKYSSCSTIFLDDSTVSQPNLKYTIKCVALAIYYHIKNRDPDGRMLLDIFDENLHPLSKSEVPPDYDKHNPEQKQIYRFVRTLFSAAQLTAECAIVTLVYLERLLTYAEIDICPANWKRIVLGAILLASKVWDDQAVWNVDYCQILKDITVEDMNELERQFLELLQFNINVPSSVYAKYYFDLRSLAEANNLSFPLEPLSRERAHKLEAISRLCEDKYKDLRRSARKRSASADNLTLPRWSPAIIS
T8 sequence (Q00526 whole entry): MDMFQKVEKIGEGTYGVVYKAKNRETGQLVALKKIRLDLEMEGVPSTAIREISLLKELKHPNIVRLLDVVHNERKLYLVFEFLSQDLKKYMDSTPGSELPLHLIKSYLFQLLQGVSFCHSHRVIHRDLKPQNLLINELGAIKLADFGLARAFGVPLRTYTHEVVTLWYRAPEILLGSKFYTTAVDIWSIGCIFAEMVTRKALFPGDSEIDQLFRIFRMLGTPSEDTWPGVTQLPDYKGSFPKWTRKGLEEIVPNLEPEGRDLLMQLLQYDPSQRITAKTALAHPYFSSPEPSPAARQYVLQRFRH
T8 sequence (P24863 whole entry partner): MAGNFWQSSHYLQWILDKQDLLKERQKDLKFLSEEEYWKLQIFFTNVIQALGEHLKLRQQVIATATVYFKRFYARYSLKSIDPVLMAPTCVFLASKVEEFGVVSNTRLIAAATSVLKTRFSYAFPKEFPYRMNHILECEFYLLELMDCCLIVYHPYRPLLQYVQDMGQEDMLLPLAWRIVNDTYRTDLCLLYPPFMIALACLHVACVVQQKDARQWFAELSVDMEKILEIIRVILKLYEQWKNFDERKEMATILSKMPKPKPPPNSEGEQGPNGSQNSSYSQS
T5 sequence (P49336 whole entry): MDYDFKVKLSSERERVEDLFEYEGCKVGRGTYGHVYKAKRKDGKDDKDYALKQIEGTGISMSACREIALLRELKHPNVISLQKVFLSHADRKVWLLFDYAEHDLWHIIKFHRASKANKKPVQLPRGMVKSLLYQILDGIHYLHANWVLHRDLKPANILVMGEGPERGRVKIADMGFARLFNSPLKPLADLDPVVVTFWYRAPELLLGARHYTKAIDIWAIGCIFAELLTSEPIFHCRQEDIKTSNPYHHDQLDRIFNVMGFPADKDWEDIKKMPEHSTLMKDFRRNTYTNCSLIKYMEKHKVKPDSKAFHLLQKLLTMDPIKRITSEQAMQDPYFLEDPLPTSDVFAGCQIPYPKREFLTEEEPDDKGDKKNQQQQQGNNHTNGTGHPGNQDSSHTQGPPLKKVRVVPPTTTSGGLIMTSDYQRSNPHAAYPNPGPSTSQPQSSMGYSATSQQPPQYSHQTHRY
T5 sequence (P24863 whole entry partner): as the sequence (P24863 whole entry partner) above
T4 sequence (Q00535 whole entry): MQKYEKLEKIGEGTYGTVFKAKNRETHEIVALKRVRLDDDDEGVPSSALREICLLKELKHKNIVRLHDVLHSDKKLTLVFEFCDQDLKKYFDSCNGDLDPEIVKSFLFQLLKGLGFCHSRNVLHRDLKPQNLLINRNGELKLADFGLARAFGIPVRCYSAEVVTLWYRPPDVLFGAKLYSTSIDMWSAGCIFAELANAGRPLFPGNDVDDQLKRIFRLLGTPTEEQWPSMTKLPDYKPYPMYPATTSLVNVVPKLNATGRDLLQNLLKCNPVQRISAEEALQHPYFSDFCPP
T4 sequence (Q15078 whole entry partner): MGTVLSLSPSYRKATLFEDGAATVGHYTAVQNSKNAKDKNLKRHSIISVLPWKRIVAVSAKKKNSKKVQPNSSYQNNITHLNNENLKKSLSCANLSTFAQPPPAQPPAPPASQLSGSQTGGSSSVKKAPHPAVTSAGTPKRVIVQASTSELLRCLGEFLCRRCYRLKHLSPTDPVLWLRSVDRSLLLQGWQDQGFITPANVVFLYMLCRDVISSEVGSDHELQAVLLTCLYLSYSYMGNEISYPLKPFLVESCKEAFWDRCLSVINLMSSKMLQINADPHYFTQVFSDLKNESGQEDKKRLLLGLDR
T20 sequence (Q00535 whole entry): as the sequence (Q00535 whole entry) above
T20 sequence (Q15078 99-307 partner limits assumed): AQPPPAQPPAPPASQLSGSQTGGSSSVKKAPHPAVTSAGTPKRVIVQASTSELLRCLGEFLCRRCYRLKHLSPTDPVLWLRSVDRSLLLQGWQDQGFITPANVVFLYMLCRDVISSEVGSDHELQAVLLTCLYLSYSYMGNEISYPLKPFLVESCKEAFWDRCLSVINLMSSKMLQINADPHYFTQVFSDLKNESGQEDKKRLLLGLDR
T17 sequence (P06493 whole entry): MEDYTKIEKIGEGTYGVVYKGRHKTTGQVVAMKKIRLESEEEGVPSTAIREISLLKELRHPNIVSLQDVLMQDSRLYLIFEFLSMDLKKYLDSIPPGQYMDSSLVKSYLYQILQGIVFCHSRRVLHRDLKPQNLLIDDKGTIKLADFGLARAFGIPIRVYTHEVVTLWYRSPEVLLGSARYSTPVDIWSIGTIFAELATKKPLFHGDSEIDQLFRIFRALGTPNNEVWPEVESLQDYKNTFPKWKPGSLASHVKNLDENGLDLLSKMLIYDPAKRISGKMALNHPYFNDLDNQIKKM
T17 sequence (P14635 whole entry partner): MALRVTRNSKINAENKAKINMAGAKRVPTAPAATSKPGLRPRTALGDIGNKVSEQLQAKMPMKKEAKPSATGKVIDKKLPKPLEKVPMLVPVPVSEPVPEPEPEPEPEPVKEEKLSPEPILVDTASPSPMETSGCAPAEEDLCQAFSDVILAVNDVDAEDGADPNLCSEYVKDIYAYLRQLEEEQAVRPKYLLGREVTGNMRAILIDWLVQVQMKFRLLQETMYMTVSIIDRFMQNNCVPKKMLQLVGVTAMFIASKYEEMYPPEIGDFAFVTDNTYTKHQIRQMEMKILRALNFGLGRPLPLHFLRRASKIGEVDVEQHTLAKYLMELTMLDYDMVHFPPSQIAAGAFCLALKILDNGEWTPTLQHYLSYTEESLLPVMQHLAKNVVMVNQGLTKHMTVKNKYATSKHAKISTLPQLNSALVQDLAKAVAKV
T12 sequence (P50750 whole entry): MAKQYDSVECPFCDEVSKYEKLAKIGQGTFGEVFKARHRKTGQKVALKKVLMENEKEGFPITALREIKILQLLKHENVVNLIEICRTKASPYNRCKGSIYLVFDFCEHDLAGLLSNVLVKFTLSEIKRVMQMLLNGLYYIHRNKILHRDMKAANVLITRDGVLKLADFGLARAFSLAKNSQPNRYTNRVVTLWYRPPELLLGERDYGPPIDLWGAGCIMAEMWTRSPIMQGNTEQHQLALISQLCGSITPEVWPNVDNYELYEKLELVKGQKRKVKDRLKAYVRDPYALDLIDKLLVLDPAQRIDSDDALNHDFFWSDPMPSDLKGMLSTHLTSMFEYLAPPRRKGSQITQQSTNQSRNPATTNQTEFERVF
T12 sequence (O60563 whole entry partner): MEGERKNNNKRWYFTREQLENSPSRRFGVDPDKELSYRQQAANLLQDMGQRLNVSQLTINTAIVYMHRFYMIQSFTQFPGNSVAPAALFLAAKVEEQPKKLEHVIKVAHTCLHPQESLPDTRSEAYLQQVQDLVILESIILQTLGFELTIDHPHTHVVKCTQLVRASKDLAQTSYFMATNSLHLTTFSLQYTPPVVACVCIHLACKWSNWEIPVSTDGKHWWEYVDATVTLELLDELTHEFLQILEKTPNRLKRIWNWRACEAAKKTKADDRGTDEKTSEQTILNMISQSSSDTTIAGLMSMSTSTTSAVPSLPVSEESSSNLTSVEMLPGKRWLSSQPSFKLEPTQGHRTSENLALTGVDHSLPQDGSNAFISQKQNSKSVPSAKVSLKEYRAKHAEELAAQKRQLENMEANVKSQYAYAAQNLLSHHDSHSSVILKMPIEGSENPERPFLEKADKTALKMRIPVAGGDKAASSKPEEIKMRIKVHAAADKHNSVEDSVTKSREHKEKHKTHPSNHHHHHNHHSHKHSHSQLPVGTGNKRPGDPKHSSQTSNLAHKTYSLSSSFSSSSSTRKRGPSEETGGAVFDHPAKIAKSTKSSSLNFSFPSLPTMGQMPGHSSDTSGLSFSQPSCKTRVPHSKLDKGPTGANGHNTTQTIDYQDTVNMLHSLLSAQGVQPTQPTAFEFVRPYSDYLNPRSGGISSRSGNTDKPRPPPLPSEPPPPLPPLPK

## Cc1c(Br)c(Br)c2c3c1nc(N1CCNCC1)n3CCC2.Cl [SEL120-34A, reference compound]
CDK9_CycK; [1]
  IC50: 0.597 µM
CDK9_CycK; slope of the IC50 fit
  Hill Slope: -1.14
CDK19_CycC; [2]
  IC50: 0.437 µM
CDK19_CycC; slope of the IC50 fit
  Hill Slope: -0.83
CDK4_CycD3
  Hill Slope: -0.78
CDK5_p35NCK; [1]
  IC50: 4.55 µM
CDK5_p35NCK; slope of the IC50 fit
  Hill Slope: -0.92
CDK8_CycC; [2]
  IC50: 0.193 µM
CDK8_CycC; slope of the IC50 fit
  Hill Slope: -0.81
CDK4_CycD1
  Hill Slope: -0.69
CDK15_CycA2; [1]
  IC50: 7.49 µM
CDK15_CycA2; slope of the IC50 fit
  Hill Slope: -0.86
CDK18_CycY; [1]
  IC50: 7.84 µM
CDK18_CycY; slope of the IC50 fit
  Hill Slope: -0.81
CDK3_CycC; [2]
  IC50: 4.82 µM
CDK3_CycC; slope of the IC50 fit
  Hill Slope: -0.87
CDK12_CycK; [1]
  IC50: 0.702 µM
CDK12_CycK; slope of the IC50 fit
  Hill Slope: -0.91
CDK10_CycQ
  Hill Slope: -0.83
CDK17_p35NCK
  Hill Slope: -0.56
CDK3_CycE1
  Hill Slope: -0.48
CDK13_CycK; [2]
  IC50: 0.292 µM
CDK13_CycK; slope of the IC50 fit
  Hill Slope: -0.51
CDK9_CycT1; [1]
  IC50: 0.957 µM
CDK9_CycT1; slope of the IC50 fit
  Hill Slope: -1.23
CDK20_CycH; [1]
  IC50: 1.13 µM
CDK20_CycH; slope of the IC50 fit
  Hill Slope: -0.52
CDK14_CycY
  Hill Slope: -0.83
CDK2_CycA2; [2]
  IC50: 2.22 µM
CDK2_CycA2; slope of the IC50 fit
  Hill Slope: -1.14
CDK16_CycY
  Hill Slope: -0.52
CDK7_CycH_MAT1
  Hill Slope: -0.9
CDK1_CycA2; [2]
  IC50: 7.1 µM
CDK1_CycA2; slope of the IC50 fit
  Hill Slope: -0.95
CDK1_CycB1; [1]
  IC50: 7.62 µM
CDK1_CycB1; slope of the IC50 fit
  Hill Slope: -0.55
CDK6_CycD2
  Hill Slope: -0.78
CDK20_CycT1; [1]
  IC50: 1.12 µM
CDK20_CycT1; slope of the IC50 fit
  Hill Slope: -0.7
CDK6_CycD3
  Hill Slope: -0.38
CDK5_p25NCK; [1]
  IC50: 7.39 µM
CDK5_p25NCK; slope of the IC50 fit
  Hill Slope: -0.75
CDK11B 357-795_CycK
  Hill Slope: -0.45
CDK2_CycD1
  Hill Slope: -0.7
CDK1_CycE1; [2]
  IC50: 5 µM
CDK1_CycE1; slope of the IC50 fit
  Hill Slope: -1.01
CDK2_CycE1; [2]
  IC50: 2.7 µM
CDK2_CycE1; slope of the IC50 fit
  Hill Slope: -1.13
CDK4_CycD2
  Hill Slope: -0.75
CDK6_CycD1
  Hill Slope: -0.06
